Results from patent US12391679B2, “Benzamide-substituted bicyclic imidazo- and pyrazolo-fused -pyridine, -pyrimide, and -pyridazine compounds for treatment of inflammatory diseases” (ONCO3R Therapeutics BV, priority 2019, dated 2025).

Tests used:
[1] = system: LPS-induced TNFα in monocytes; assay: Monocytes assay: LPS-triggered TNFα (ELISA); type: cell-based, human; conditions: Homo sapiens, Monocyte, LPS-triggered TNFα inhibition
How it was run: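 CD14+ monocytes were magnetically isolated from human buffy-coat PBMCs, preincubated with compound 1 h at 37 °C (0.2% DMSO), then stimulated with LPS at 200 ng/mL for 4 h. Supernatant TNFα was measured by luminescent sandwich ELISA; percentage inhibition was calculated against controls for each concentration.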

[2] = target: T1, SIK3 (Homo sapiens, UniProt Q9Y2K2); assay: ADP-Glo kinase assay, SIK3; type: biochemical
T1 construct: purchased SignalChem S12-11G-100
How it was run: (§1)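 Each SIK isoform is incubated with substrate and ATP for 2 h at room temperature, after which residual ATP is depleted and the ADP formed is quantified by luminescence.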

[3] = target: T2, SIK2 (Homo sapiens, UniProt Q9H0K1); assay: ADP-Glo kinase assay, SIK2; type: biochemical
T2 construct: purchased ThermoFisher Scientific PV4792
How it was run: as §1

[4] = system: LPS triggered IL-10 secretion in monocytes; assay: Monocytes assay: LPS-triggered IL-10 (ELISA); type: cell-based, human; conditions: Homo sapiens, Monocyte, LPS-triggered IL-10 induction, median maximal fold change vs LPS only, read-out: IL-10 FCmax median
Description: This assay evaluates illustrative compounds of the invention for their inhibition of LPS-induced TNFα and LPS triggered IL-10 secretion in monocytes.
PBMCs are isolated from human blood samples (buffycoats). The buffy coat is aseptically transferred into a 50 mL Falcon tube, and diluted 1/2 in PBS. Falcon tubes are filled with 20 mL Lymphoprep™, on top of which 25 mL of the buffy coat is carefully added, tubes are centrifuged for 35 min at 400 g in temperature controlled centrifuge, without brake, at 25° C. PBMCs are aspirated from the white interface layer between sample and Lymphoprep™. PBMCs are washed five times in PBS.
PBMCs are centrifuged at 300×g for 10 min and resuspended at a density of 1.0*10^7 cells/80 μL Miltenyi buffer (PBS, pH 7.4, 1% FBS, 2 mM EDTA).
Starting from this point of the protocol all steps are performed on ice. 20 μL of CD14+ micro-beads are added per 1.0*10^7 cells, the tube is mixed and incubated for 15 min in the fridge at 4° C. Cell suspension volume is adjusted to total volume of 100 mL using Miltenyi buffer, mixed gently and subsequently centrifuged for 10 min at 300×g. Supernatant is discarded and cell pellet is resuspended in 12 mL of Miltenyi buffer.
Four LS columns are placed in the MACS Separator (magnet) from Miltenyi Biotec, and are prewet by rinsing with 3 mL of MACS buffer per column. Three mL of cell suspension is added onto the column (max 1*10^8 of labelled cells/column), and columns are subsequently washed 3 times with 3 mL of Miltenyi buffer.
The columns are removed from the magnets, and 5 mL of Miltenyi buffer are added to the column to flush out the CD14+ fraction by pushing the plunger into the column. The flushed fractions are collected in a fresh 50 mL Falcon and volume is adjusted to 30 mL using Miltenyi buffer, cells are centrifuged for 10 min at 300×g. The obtained cell pellet is resuspended in 10 mL RPMI w/o FBS, and cell density is determined using a hematologic analyser (Sysmex XS-500i).
A compound dilution plate is made in 100% DMSO by 3-fold dilution of 10 mM stock solution. An intermediate dilution plate (10× final concentration) is made by diluting the compound dilution plate 50-fold in RPMI medium.
10 μL of the 10× final concentration compound is added to the cells and incubated for 1 h at 37° C. before addition of trigger. No trigger conditions/trigger conditions are spiked with equal final DMSO concentrations of 0.2% DMSO. 10 μL of 10×LPS (final conc. 200 ng/mL) solution are added to all wells except for the ‘no trigger wells’ where 10 μL medium is added. Supernatant is collected after 4 h of LPS triggering.
A Lumitrac 600 Greiner 384-well plate is coated with 40 μL of capture antibody (final concentration of 1 μg/mL in 1×PBS) and stored overnight at 4° C. The next day the plate is washed three times with PBST (PBS+0.05% Tween20) and once with PBS followed by the addition of 100 μL of blocking buffer (1% BSA-5% Sucrose) and plates are sealed and incubated for at least 4 h at RT. After washing the plate once with PBST and once with PBS, 40 μL of standard or sample are added (IL-10 standard curve is prepared using a 1/2 serial dilution starting from 2000 pg/mL; dilutions are made in dilution buffer (PBS+1% BSA)). […] Plates are washed twice with PBST, and once with PBS, whereafter 35 μL of Strep-HRP conjugate (0.5 μg/mL final concentration diluted in dilution buffer) is added. Plates are incubated in the dark, at RT for at least 45 min but no longer than 1 h. Plates are washed twice with PBST, and once with PBS. Thereafter, 50 μL of luminol substrate is added to each well (prepared according to manufacturer's instructions), and incubated for 5 min at RT protected from light.
To quantify these increases, fold changes (FC) compared to ‘LPS only’ are calculated for each concentration tested and the maximal FC is calculated (IL-10 FCmax): […]

[5] = target: T3, SIK1 (Homo sapiens, UniProt P57059); assay: ADP-Glo kinase assay, SIK1; type: biochemical
T3 construct: purchased Carna Biosciences 02-131
How it was run: as §1

[6] = target: T3, SIK1; assay: 33P radioactive kinase assay, SIK1; type: biochemical
Description: (§2) The principle of the ^33P radioactive kinase assay consists in measuring the incorporated ^33P into the substrate AMARA peptide when phosphorylated by SIK1, SIK2 or SIK3 using [^33P]-g-ATP, which correlates with kinase activity.
(§3) The test compounds are prepared as a serial dilution of 10 point dose responses with 1/5 dilution steps in 100% DMSO starting from 2 mM highest concentration, diluted 1/20 in water and 5 μL is transferred to the assay plates (Greiner, Cat #651201).
(§4) 1% DMSO and 10 μM staurosporine final concentrations are used as negative and positive controls.
(§5) 11 μL of enzyme-substrate mixture is added on the assay plates. The reactions are started by adding 9 μL ATP mixture, consisting of non-labeled and ^33P-labeled ATP, on the assay plates.
(§6) The reactions are stopped by adding 25 μL phosphoric acid (150 mM) to the reactions.
(§7) The completely terminated kinase reactions are transferred using a harvester on pre-wetted UniFilter-96 plates (UniFilter-96 GF/B, PerkinElmer Inc., Cat #6005177).
(§8) After harvesting the kinase reactions, the filter plates are washed 6 times with phosphoric acid (75 mM). The back of the UniFilter-96 plates are sealed and 40 μL MicroScint-20 (PerkinElmer Inc., Cat #6013621) is added to each well. The top of the plates are sealed with TopSeal-A. Read-out is performed with a TopCount instrument (PerkinElmer Inc.).
(§9) Raw data are generated following the read-out performed on the TopCount, plotted to generate dose response curves to calculate percentage inhibition (PIN) and average IC50 for each SIK homologue which are reported in the table below.

[7] = target: T1, SIK3; assay: 33P radioactive kinase assay, SIK3; type: biochemical; conditions: 33P radioactive assay; AMARA 7 μM; 15 μM ATP; 80 min; average IC50
Description: as §2, §3, §4, §5, §6, §7, §8, §9

[8] = target: T2, SIK2; assay: 33P radioactive kinase assay, SIK2; type: biochemical; also: AMARA 5 µM, 10 µM ATP
Description: as §2, §3, §4, §5, §6, §7, §8, §9

[9] = ADP-Glo, AMARA 45 μM, 5 μM ATP, 120 min, average IC50

T2 sequence (Q9H0K1 whole entry): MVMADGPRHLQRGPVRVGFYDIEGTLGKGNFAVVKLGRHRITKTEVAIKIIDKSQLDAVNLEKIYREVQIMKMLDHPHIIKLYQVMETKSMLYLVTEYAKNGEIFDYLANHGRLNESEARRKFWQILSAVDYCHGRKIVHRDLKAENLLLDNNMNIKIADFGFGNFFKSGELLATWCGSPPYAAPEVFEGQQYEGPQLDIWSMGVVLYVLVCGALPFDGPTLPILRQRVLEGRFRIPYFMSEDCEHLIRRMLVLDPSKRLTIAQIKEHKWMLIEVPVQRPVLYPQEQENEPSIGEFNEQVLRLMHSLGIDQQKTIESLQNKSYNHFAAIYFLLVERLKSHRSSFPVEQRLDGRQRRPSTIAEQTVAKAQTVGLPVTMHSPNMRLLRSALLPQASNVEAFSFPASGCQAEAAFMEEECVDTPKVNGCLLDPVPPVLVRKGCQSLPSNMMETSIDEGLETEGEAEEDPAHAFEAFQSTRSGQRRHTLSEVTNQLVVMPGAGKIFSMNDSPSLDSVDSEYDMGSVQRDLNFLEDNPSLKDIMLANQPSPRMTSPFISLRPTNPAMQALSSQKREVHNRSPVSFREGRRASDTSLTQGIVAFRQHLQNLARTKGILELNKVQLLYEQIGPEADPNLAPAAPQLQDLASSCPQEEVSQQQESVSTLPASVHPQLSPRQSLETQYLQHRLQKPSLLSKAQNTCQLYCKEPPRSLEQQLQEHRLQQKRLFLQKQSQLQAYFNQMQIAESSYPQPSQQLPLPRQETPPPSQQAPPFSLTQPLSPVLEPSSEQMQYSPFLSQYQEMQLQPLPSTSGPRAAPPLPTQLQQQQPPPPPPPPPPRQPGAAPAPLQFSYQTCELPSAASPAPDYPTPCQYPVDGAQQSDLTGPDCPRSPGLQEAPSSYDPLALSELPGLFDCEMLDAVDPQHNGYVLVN
T1 sequence (Q9Y2K2 59-365 limits assumed): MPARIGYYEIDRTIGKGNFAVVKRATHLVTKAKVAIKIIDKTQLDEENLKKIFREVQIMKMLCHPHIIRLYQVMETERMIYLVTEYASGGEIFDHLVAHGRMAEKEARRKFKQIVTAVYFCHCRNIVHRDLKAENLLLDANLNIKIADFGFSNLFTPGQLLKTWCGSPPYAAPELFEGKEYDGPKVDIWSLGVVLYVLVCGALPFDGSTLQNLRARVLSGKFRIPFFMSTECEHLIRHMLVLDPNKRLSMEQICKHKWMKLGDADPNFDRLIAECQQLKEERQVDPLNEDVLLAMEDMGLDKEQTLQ
T3 sequence (P57059 whole entry): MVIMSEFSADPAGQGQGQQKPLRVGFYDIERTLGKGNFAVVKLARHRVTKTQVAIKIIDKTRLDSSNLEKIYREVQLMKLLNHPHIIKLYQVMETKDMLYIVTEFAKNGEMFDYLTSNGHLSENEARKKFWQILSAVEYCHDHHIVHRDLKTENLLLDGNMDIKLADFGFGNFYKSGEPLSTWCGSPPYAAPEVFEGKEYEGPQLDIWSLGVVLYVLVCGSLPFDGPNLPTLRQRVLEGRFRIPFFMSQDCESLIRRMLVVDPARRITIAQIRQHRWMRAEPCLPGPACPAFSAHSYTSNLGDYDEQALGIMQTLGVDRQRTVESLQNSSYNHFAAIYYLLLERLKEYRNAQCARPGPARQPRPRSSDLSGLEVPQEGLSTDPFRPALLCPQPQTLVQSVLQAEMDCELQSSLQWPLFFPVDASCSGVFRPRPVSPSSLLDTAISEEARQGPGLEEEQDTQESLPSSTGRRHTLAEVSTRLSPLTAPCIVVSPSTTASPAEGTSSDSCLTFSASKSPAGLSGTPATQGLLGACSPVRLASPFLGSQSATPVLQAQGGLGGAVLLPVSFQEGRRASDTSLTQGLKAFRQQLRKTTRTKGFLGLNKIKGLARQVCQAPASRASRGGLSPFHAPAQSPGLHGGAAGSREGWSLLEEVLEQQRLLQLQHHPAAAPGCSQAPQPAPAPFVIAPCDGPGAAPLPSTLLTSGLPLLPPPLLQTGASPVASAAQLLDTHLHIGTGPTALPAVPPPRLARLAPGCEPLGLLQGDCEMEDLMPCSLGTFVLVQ

SMILES | EC50 [1] | IC50 [2] | IC50 [3] | maximal fold induction [4] | IC50 [5] | IC50 [2, 9] | IC50 [3, 9] | IC50 [5, 9] | IC50 [6] | IC50 [7] | IC50 [8]
COc1cc(-c2cnc3cc(C(C)(O)Cn4ccnc4)ccn23)cc(OC(F)F)c1C(=O)NC1CC1 (centres unmarked) [Cpd 181, N-cyclopropyl-2-(difluoromethoxy)-4-[7-(1-hydroxy-2-imidazol-1-yl-1-methyl-ethyl)imidazo[1,2-a]pyridin-3-yl]-6-methoxy-benzamide] | 1000 to 5000 nM | 10 to 100 nM | > 500 nM | < 1.5 | > 500 nM | – | – | – | – | – | –
COc1cc(-c2cnn3cc(C4COCCO4)ccc23)cc(OC(F)F)c1C(=O)N[C@@H]1C[C@@H]1F (stereo partly drawn) [Cpd 240, 2-(difluoromethoxy)-4-[6-(1,4-dioxan-2-yl)pyrazolo[1,5-a]pyridin-3-yl]-N-[(1R,2S)-2-fluorocyclopropyl]-6-methoxy-benzamide] | 100 to 1000 nM | – | – | 1.5 to 4.5 | – | 0.01 to 10 nM | 10 to 100 nM | 100 to 500 nM | – | – | –
COc1cc(-n2cnc3cc(C4CCCN(C)C4)ccc32)cc(OC)c1C(=O)NCC(F)(F)F (centres unmarked) [Cpd 6, 2,6-dimethoxy-4-[5-(1-methyl-3-piperidyl)benzimidazol-1-yl]-N-(2,2,2-trifluoroethyl)benzamide] | – | – | – | – | – | – | – | – | > 500 nM | 100 to 500 nM | > 500 nM
COc1cc(-n2cnc3cc(C4(C#N)CCC4)ccc32)cc(OC)c1C(=O)NC1CC1 [Cpd 14, 4-[5-(1-cyanocyclobutyl)benzimidazol-1-yl]-N-cyclopropyl-2,6-dimethoxy-benzamide] | – | – | – | – | – | – | – | – | > 500 nM | > 500 nM | > 500 nM
COc1cc(-n2cnc3cc(C4(C#N)CCC4)ccc32)cc(OC)c1C(=O)NCC(F)(F)F [Cpd 13, 4-[5-(1-cyanocyclobutyl)benzimidazol-1-yl]-2,6-dimethoxy-N-(2,2,2-trifluoroethyl)benzamide] | – | – | – | – | – | – | – | – | > 500 nM | > 500 nM | > 500 nM
COc1cc(-c2cnc3cc(C4(O)COC4)ccn23)cc(OC(F)F)c1C(=O)NC1CC1 [Cpd 177, N-cyclopropyl-2-(difluoromethoxy)-4-[7-(3-hydroxyoxetan-3-yl)imidazo[1,2-a]pyridin-3-yl]-6-methoxy-benzamide] | 100 to 1000 nM | 10 to 100 nM | > 500 nM | < 1.5 | > 500 nM | – | – | – | – | – | –
COCC(C)(O)c1ccn2c(-c3cc(OC)c(C(=O)NC4CC4)c(OC(F)F)c3)cnc2c1 (centres unmarked) [Cpd 182, N-cyclopropyl-2-(difluoromethoxy)-4-[7-(1-hydroxy-2-methoxy-1-methyl-ethyl)imidazo[1,2-a]pyridin-3-yl]-6-methoxy-benzamide] | 100 to 1000 nM | 10 to 100 nM | > 500 nM | < 1.5 | > 500 nM | – | – | – | – | – | –
COc1cc(-c2cnc3cc(C(C)(C)F)ccn23)cc(OC(F)F)c1C(=O)NC1CC1 [Cpd 133, N-cyclopropyl-2-(difluoromethoxy)-4-[7-(1-fluoro-1-methyl-ethyl)imidazo[1,2-a]pyridin-3-yl]-6-methoxy-benzamide] | 100 to 1000 nM | 10 to 100 nM | 100 to 500 nM | 1.5 to 4.5 | 100 to 500 nM | – | – | – | – | – | –
[2H]C([2H])([2H])C(C#N)(c1ccn2c(-c3cc(OC)c(C(=O)NC4CC4)c(OC(F)F)c3)cnc2c1)C([2H])([2H])[2H] [Cpd 230, 4-[7-[1-cyano-2,2,2-trideuterio-1-(trideuteriomethyl)ethyl]imidazo[1,2-a]pyridin-3-yl]-N-cyclopropyl-2-(difluoromethoxy)-6-methoxy-benzamide] | 100 to 1000 nM | 0.01 to 10 nM | 100 to 500 nM | < 1.5 | > 500 nM | – | – | – | – | – | –
COc1cc(-c2cnc3cc(C(C)(O)CN4CC(F)(F)C4)ccn23)cc(OC(F)F)c1C(=O)NC1CC1 (centres unmarked) [Cpd 191, N-cyclopropyl-4-[7-[2-(3,3-difluoroazetidin-1-yl)-1-hydroxy-1-methyl-ethyl]imidazo[1,2-a]pyridin-3-yl]-2-(difluoromethoxy)-6-methoxy-benzamide] | 1000 to 5000 nM | 10 to 100 nM | > 500 nM | < 1.5 | > 500 nM | – | – | – | – | – | –
COc1cc(-c2cnc3cc(C4CCOCC4)c(OCCO)cn23)cc(OC(F)F)c1C(=O)NC1CC1 [Cpd 183, N-cyclopropyl-2-(difluoromethoxy)-4-[6-(2-hydroxyethoxy)-7-tetrahydropyran-4-yl-imidazo[1,2-a]pyridin-3-yl]-6-methoxy-benzamide] | 1000 to 5000 nM | 10 to 100 nM | 100 to 500 nM | < 1.5 | > 500 nM | – | – | – | – | – | –
COc1cc(-c2cnc3cc(C(C)(C)C#N)ccn23)cc(OC(F)F)c1C(=O)N[C@@H]1C[C@H]1F (racemic) [Cpd 225, 4-[7-(1-cyano-1-methyl-ethyl)imidazo[1,2-a]pyridin-3-yl]-2-(difluoromethoxy)-N-(2-fluorocyclopropyl)-6-methoxy-benzamide] | 100 to 1000 nM | 0.01 to 10 nM | > 500 nM | < 1.5 | > 500 nM | – | – | – | – | – | –
COCC(C)(C)c1ccc2c(-c3cc(OC)c(C(=O)NC4CC4)c(OC(F)F)c3)cnn2c1 [Cpd 238, N-cyclopropyl-2-(difluoromethoxy)-6-methoxy-4-[6-(2-methoxy-1,1-dimethyl-ethyl)pyrazolo[1,5-a]pyridin-3-yl]benzamide] | 100 to 1000 nM | 10 to 100 nM | > 500 nM | < 1.5 | > 500 nM | – | – | – | – | – | –
